# In patent publication US9012441B2, “Therapeutic compounds” (Gilead Sciences, Inc., priority 2013, dated 2015):
# Where two headings read alike, the source gives them in different places.
# Assays:
# [1] = Test B: Cytotoxicity Assay (uninfected MT-4 cells); format: cell-based; settings: human, same protocol as Test A, read-out: MT4-CC50
# Method: (§1) For the antiviral assay, 40 μL of 1× test concentration of 3-fold serially diluted compound in culture medium with 10% FBS was added to each well of a 384-well plate (10 concentrations) in quadruplicate. MT-4 cells were next mixed with HIV-IIIb at an m.o.i of 0.003 for 1 hour, after which time 35 μL of virus/cell mixture (2000 cells) was immediately added to each well containing 40 μL of diluted compound. The plates were then incubated at 37° C. for 5 days. After 5 days of incubation, 25 μl of 2× concentrated CellTiter-Glo™ Reagent (catalog #G7571, Promega Biosciences, Inc., Madison, Wis.) was added to each well containing MT-4 cells. Cell lysis was carried out by incubating at room temperature for 10 min and then chemiluminescence was read. […] Test B: Cytotoxicity Assay Compound cytotoxicity and the corresponding CC50 values were determined using the same protocol as described in the antiviral assay (Test A) except that uninfected cells were used.
# HIV-IIIb = experiment: Test A: Antiviral Assay in MT4 Cells; format: cell-based, HIV-1; settings: Human immunodeficiency virus 1, MT4, 120 h, read-out: % Inh @ 2 uM (percent inhibition of virus-induced cell killing); 2 uM test compound; MT-4 cells infected with HIV-IIIb, 5 days, CellTiter-Glo
# Method: as §1, with “Test A: Antiviral Assay in MT4 Cells For” for “For”, “Accordingly,” for “Test B: Cytotoxicity Assay Compound cytotoxicity and”, “compounds disclosed herein may be useful for treating an HIV virus infection, treating AIDS or for delaying” for “corresponding CC50 values were determined using”, “onset of AIDS or ARC symptoms.” for “same protocol as described in the antiviral assay (Test A) except that uninfected cells were used.”
Structure (SMILES),CC50 at 5 days [1] [µM],inhibition at 2 µM (HIV-IIIb) [%],further results
COC(=O)[C@@H]1Cc2cc(F)cc(c2)/C=C\Cc2c(c3ccccc3n2C(=O)OC(C)(C)C)CC(=O)N1,,,"ring closure, yield of all isomers (from C=CCc1c(CC(=O)N[C@@H](Cc2cc(F)cc(Br)c2)C(=O)OC)c2ccccc2n1C(=O)OC(C)(C)C, cc_pd bond, Pd(PPh3)4, acetonitrile, 4.3 mM, 82.0 °C, 6.0 h): 49.9%"
COC(=O)[C@@H]1Cc2cccc(c2)C/C=C/c2[nH]c3ccc(OC)nc3c2CC(=O)N1,,,"ring closure, yield of all isomers (from C=CCc1cccc(C[C@H](NC(=O)Cc2c(Br)n(C(=O)OC(C)(C)C)c3ccc(OC)nc23)C(=O)OC)c1, cc_pd bond, Pd(OAc)2, DMF, 2.46 mM, 120.0 °C, 5.0 h): 33.3%"
COc1ccc(N(C)C(=O)[C@@H]2Cc3cccc(c3)/C=C/Cc3c(c4ccccc4n3C(=O)OC(C)(C)C)CC(=O)N2)cc1,,,"ring closure, yield of all isomers (from C=CCc1c(CC(=O)N[C@@H](Cc2cccc(I)c2)C(=O)N(C)c2ccc(OC)cc2)c2ccccc2n1C(=O)OC(C)(C)C, cc_pd bond, Pd2(dba)3, acetonitrile, 19.6 mM, 82.0 °C): 57.4%"
"COc1ccc(N(C)C(=O)[C@@H]2Cc3cccc(c3)CCCc3[nH]c4ccccc4c3CC(=O)N2)cc1 [Example 1, (4S)—N-(4-methoxyphenyl)-N-methyl-2-oxo-2,3,4,5,11,12,13,14-octahydro-1H-6,10-(metheno)azacyclopentadecino[5,4-b]indole-4-carboxamide]",> 50.3,103,"ring closure, yield of all isomers (from COc1ccc(N(C)C(=O)[C@@H](N)Cc2cccc(CCCc3[nH]c4ccccc4c3CC(=O)O)c2)cc1, amide bond, DPPA, DIPEA, DMF, 2.99 mM, 25.0 °C, 16.0 h): 23.9%"
"COc1ccc(N(C)C(=O)[C@@H]2Cc3cccc(c3)CCSCc3[nH]c4ccccc4c3CC(=O)N2)cc1 [Example 5, (11S)—N-(4-methoxyphenyl)-N-methyl-13-oxo-3,4,10,11,12,13,14,19-octahydro-1H-9,5-(metheno)[1,7]thiazacyclohexadecino[3,4-b]indole-11-carboxamide]",49.5,33.4,"ring closure, yield of all isomers (from COc1ccc(N(C)C(=O)[C@@H](N)Cc2cccc(CCSCc3[nH]c4ccccc4c3CC(=O)O)c2)cc1, amide bond, DPPA, DIPEA, DMF, 2.95 mM, 25.0 °C, 16.0 h): 65.8%"
"COc1ccc(N(C)C(=O)[C@@H]2Cc3cccc(c3)CSCc3[nH]c4ccccc4c3CC(=O)N2)cc1 [Example 15, (10S)—N-(4-methoxyphenyl)-N-methyl-12-oxo-9,10,11,12,13,18-hexahydro-1H-8,4-(metheno)[1,7]thiazacyclopentadecino[3,4-b]indole-10(3H)-carboxamide]",> 51.4,95.8,"ring closure, yield of all isomers (from COc1ccc(N(C)C(=O)[C@@H](N)Cc2cccc(CSCc3[nH]c4ccccc4c3CC(=O)O)c2)cc1, amide bond, DPPA, DIPEA, DMF, 3.01 mM, 25.0 °C, 16.0 h): 49.1%"
"COc1ccc(N(C)C(=O)[C@@H]2Cc3cccc(c3)SCc3[nH]c4ccccc4c3CC(=O)N2)cc1 [Example 18, (9S)—N-(4-methoxyphenyl)-N-methyl-11-oxo-8,9,10,11,12,17-hexahydro-1H-7,3-(metheno)[1,7]thiazacyclotetradecino[3,4-b]indole-9-carboxamide]",> 53,47.3,"ring closure, yield of all isomers (from COc1ccc(N(C)C(=O)[C@@H](N)Cc2cccc(SCc3[nH]c4ccccc4c3CC(=O)O)c2)cc1, amide bond, DPPA, DIPEA, DMF, 3.01 mM, 25.0 °C, 16.0 h): 65.5%"
"COc1ccc(N(C)C(=O)[C@@H]2Cc3cccc(c3)CSc3[nH]c4ccccc4c3CC(=O)N2)cc1 [Example 20, (9S)—N-(4-methoxyphenyl)-N-methyl-11-oxo-8,9,10,11,12,17-hexahydro-7,3-(metheno)[1,6]thiazacyclotetradecino[2,3-b]indole-9(2H)-carboxamide]",45.2,97.7,"ring closure, yield of all isomers (from COc1ccc(N(C)C(=O)[C@@H](N)Cc2cccc(CSc3[nH]c4ccccc4c3CC(=O)O)c2)cc1, amide bond, DPPA, DIPEA, DMF, 3.0 mM, 25.0 °C, 16.0 h): 65.8%"
CN(C(=O)[C@@H]1Cc2cccc(c2)CCCc2cc(C(F)(F)F)nn2CC(=O)N1)c1ccc(Cl)cc1 [Example 32],22.5,72.3,"ring closure, yield of all isomers (from C=CCc1cc(C(F)(F)F)nn1CC(=O)N[C@@H](Cc1cccc(Br)c1)C(=O)N(C)c1ccc(Cl)cc1, cc_pd bond, Pd(OAc)2 / 2-di-tert-butylphosphino-2'-(N,N-dimethylamino)biphenyl / triethylamine, DMF, 2.81 mM, 120.0 °C, 2 steps): 15%"
